Data as given in ChEMBL document CHEMBL1129875, “SYNTHESIS AND ANTISTAPHYLOCOCCAL ACTIVITY OF NEMATOPHIN AND ITS ANALOGS” (1997).
Values after ≈ are worked out from the molar mass of the structure shown.

System: Staphylococcus aureus
Test: Minimum inhibitory concentration required to inhibit Staphylococcus aureus ATCC 29213 cell growth
Type: functional

| MIC [µg/mL] | SMILES |
| --- | --- |
| 3 (≈ 11.6 µM) | CC(C)C(=O)C(=O)NCCc1c[nH]c2ccccc12 |
| 0.7 (≈ 2.57 µM) | CC(C)CC(=O)C(=O)NCCc1c[nH]c2ccccc12 |
| 100 (≈ 409 µM) | CCC(=O)C(=O)NCCc1c[nH]c2ccccc12 |
| 0.7 (≈ 2.57 µM) | CCC(C)C(=O)C(=O)NCCc1c[nH]c2ccccc12 (stereo unspecified) |
| 25 (≈ 91.5 µM) | CCC(C)C(=O)C(=O)OCCc1c[nH]c2ccccc12 (stereo unspecified) |
| 100 (≈ 434 µM) | CC(=O)C(=O)NCCc1c[nH]c2ccccc12 |
| 3 (≈ 10.5 µM) | CCC(C)C(=O)C(=O)NCCc1c[nH]c2ccc(C)cc12 (stereo unspecified) |
| > 100 | CCC(C)C(O)C(=O)NCCc1c[nH]c2ccccc12 (stereo unspecified) |
| > 100 | CCC(C)/C(=N\OC)C(=O)NCCc1c[nH]c2ccccc12 (stereo unspecified) |
| 0.7 (≈ 2.41 µM) | CCC(C)C(=O)C(=O)NCCc1c[nH]c2cc(F)ccc12 (stereo unspecified) |
| 3 (≈ 9.92 µM) | CCC(C)C(=O)C(=O)NCCc1c[nH]c2ccc(OC)cc12 (stereo unspecified) |
